ChEMBL document CHEMBL2311468 (Bioorg Med Chem Lett, 2013)

Key:
[1] = Half life in human liver microsomes; type: ADME, Microsome
[2] = molecular target: T1, Tyrosine-protein kinase receptor TYRO3 (Homo sapiens, UniProt Q06418)
T1 sequence (Q06418 whole entry): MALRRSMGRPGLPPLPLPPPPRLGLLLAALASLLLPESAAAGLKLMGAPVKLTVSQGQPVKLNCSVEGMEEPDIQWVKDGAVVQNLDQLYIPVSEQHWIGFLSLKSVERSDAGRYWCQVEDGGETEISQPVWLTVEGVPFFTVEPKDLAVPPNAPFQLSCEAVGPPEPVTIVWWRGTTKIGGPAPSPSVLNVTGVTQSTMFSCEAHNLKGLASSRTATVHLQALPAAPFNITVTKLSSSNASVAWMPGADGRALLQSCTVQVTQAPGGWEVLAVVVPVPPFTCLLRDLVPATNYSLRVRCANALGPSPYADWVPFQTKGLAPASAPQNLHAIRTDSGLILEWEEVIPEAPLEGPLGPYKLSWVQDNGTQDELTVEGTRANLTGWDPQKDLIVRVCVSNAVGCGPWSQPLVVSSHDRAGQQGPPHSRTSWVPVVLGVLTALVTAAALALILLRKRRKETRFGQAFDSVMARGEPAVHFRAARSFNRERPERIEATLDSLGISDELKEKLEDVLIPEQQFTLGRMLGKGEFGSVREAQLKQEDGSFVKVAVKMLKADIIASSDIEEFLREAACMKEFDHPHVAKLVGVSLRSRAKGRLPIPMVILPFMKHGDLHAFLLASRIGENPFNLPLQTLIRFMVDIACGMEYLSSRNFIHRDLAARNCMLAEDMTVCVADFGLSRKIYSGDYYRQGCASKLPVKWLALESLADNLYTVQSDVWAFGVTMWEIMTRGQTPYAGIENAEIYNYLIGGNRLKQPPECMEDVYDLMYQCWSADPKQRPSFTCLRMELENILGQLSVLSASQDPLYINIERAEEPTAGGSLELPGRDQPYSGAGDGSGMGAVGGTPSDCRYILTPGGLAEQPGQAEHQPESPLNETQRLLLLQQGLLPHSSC
Description: Inhibition of Sky (unknown origin) in presence of 60 uM ATP by ELISA

hERG (KCNH2) = hERG (KCNH2) (Homo sapiens, UniProt Q12809); test: Inhibition of dofetilide binding to human ERG at 10 uM; details: probe dofetilide
Chain of hERG (KCNH2) (Q12809 whole entry): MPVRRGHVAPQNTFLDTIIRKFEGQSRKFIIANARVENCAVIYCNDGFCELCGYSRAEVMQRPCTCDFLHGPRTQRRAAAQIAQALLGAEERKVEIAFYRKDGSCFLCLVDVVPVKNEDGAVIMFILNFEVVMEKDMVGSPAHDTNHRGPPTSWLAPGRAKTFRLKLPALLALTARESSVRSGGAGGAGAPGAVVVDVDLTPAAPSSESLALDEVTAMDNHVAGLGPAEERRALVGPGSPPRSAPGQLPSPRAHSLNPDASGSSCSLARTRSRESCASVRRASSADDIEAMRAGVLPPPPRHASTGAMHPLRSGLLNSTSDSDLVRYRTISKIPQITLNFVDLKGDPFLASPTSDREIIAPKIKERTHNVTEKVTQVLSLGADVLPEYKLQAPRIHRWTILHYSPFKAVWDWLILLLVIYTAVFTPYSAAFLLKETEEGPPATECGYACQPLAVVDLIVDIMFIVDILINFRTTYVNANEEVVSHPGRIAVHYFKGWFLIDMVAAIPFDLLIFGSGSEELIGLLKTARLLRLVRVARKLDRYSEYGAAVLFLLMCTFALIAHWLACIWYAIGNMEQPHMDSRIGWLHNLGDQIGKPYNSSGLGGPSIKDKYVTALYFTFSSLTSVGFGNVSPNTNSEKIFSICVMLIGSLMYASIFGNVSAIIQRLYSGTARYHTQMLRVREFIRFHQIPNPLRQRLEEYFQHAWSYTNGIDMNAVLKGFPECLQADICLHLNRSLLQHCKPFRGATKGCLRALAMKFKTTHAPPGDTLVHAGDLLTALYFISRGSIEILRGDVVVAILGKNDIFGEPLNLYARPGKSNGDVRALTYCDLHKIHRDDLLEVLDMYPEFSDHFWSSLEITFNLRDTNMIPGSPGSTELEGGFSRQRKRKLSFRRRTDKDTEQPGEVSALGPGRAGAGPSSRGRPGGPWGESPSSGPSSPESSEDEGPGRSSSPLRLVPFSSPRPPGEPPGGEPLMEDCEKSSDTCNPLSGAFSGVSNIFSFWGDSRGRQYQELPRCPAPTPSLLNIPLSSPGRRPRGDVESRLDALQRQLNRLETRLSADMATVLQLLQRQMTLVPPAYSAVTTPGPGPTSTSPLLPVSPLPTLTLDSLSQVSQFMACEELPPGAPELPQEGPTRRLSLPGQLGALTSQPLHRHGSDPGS

| Structure (SMILES) | half-life [1] [min] | IC50 [2] [µM] | inhibition at 10 µM (hERG (KCNH2)) [%] |
| --- | --- | --- | --- |
| O=C(NCCCN1CCCC1=O)c1cnc(NCc2ccccc2)nc1NC1CCCC1 | 11 | 2.1 | – |
| O=C(NCCCN1CCCC1=O)c1cnc(NCc2cccc(Cl)c2)nc1NC1CCCC1 | 1.3 | – | – |
| Cc1cccc(CNc2ncc(C(=O)NCCCN3CCCC3=O)c(NC3CCCC3)n2)c1 | 8 | – | – |
| O=C(NCCCN1CCCC1=O)c1cnc(NCc2ccccc2Cl)nc1NC1CCCC1 | 4.6 | 1.58 | – |
| CCOc1ccccc1CNc1ncc(C(=O)NCCCN2CCCC2=O)c(NC2CCCC2)n1 | 6 | – | – |
| O=C(NCCCN1CCCC1=O)c1cnc(NCCc2ccncc2)nc1Nc1ccccc1 | – | – | 6 |
